Among the data in PubChem BioAssay (NCI) are GI50 and TGI values, retold here.

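Step 1: Grow cells in 96-well plates. Step 2: Expose to compound for 48 hours at 5 concentrations. Step 3: Interpolate endpoints linearly; if unreached, use highest concentration. The concentration for 50% growth inhibition is given as GI50. TGI marks complete inhibition of growth.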 Some results are limits rather than exact numbers.

The first test concerns NCI-H460 lung. Put plainly: inhibition of tumour cell growth, NCI panel, 48 h.
Regarding `C[C@@H]1CCC2[C@@H](C)[C@@H](OCC(CO[C@H]3OC4O[C@@]5(C)CC[C@H]6[C@H](C)CCC([C@H]3C)[C@@]46OO5)OC(=O)CCC(=O)O)OC3O[C@@]4(C)CC[C@@H]1[C@]32OO4` (stereo not given in full), the GI50 was below 0.0183 µM and the TGI came out at 15.8 µM.
`COc1cc(OC)cc(-c2cc(=O)c3c(OC)c(OC)c(OC)c(OC)c3o2)c1` displayed a TGI above 100 µM.
Turning to `COc1cc2c(c(OC)c1OC)-c1ccc(OC)c(=O)cc1C(NC(=O)c1ccc(N=[N+]=[N-])cc1)CC2` (stereo not given), the TGI worked out at 0.0613 µM.
For `O=C1OC(O)[C@@H]2[C@H]1[C@H]1CC[C@@H]2O1` (stereo not given in full), the GI50 is above 100 µM and the TGI was above 100 µM.
Take `COC(=O)C1=C(C)NC(C)=C(C(=O)OCCCN2CCC(c3ccccc3)(c3ccccc3)CC2)C1c1cccc([N+](=O)[O-])c1` (stereo not given): the TGI stood at 3.35 µM.
On the same count and under the same terms, the value for `N=Nc1c(OC(=O)Nc2cccc(Cl)c2)[nH]c2ccccc12` was 20 µM.
On to `Fc1cc2[nH]ncc2c2c3c(c(-c4cn[nH]c4)nc12)CCCC3`, for which the GI50 was 0.845 µM and the TGI worked out at 4.69 µM.
On the same counts, the results for `C=C1C(=O)O[C@H]2[C@H]1CC/C(COC(=O)c1c[nH]c3ccccc13)=C\CC[C@@]1(C)O[C@@H]21` are 1.1 µM and 3.18 µM.
On the same counts, the results for `CCN1CCN(c2nc(C)cc(N(CCNc3ccnc4cc(Cl)ccc34)Cc3ccc4c(c3)OCO4)n2)CC1` are 1.94 µM and 4.7 µM.
Taken in the same sequence, the figures for `CCN(CC)c1ccc(-c2cc(-c3cc(OC)c(OC)c(OC)c3)nc(N3CCOCC3)c2C#N)cc1` were 0.412 µM and 5.73 µM.
On to `C=C(Br)C(C)(Br)CCC(Br)C(C)(C)Cl` (stereo not given), for which the TGI stood at 36.6 µM.
For the compound `O=C(CCc1nnc2sc(-c3ccc(Cl)cc3Cl)nn12)c1nc2ncccc2[nH]1`, the GI50 is 1.89 µM and the TGI was found to be 3.64 µM.
Compound `NS(=O)(=O)c1cc(Br)c(N=Nc2ccc(O)c3ncccc23)c(Br)c1` came in with a TGI above 100 µM.
Same read-out and setting: the figure for `OCc1ccc(-c2ccc(-c3ccc(CO)s3)o2)s1` is 2.89 µM.
As for `O=C(Nc1ccc(Cl)cc1)c1cccc(NC2=C(Cl)C(=O)N(Cc3ccccc3)C2=O)c1`, the GI50 was 15.2 µM and the TGI came out at 35 µM.
On the same counts, the results for `Cc1cc(/C=C/c2ccc3cc(N(C)C)ccc3[n+]2C)c(C)n1-c1ccccc1` are 0.146 µM and 0.56 µM.
Taken in the same sequence, the figures for `CC[C@H](Nc1ncnc2nc[nH]c12)c1oc2ccccc2c(=O)c1-c1cccc(F)c1` were 18.8 µM and 58.8 µM.
`COc1cc(NCc2ccc3oc(=O)c(-c4ccccc4)nc3c2)cc(OC)c1OC` came in with a TGI above 10 µM.

The test system of the next test is HL-60(TB) leukemia. In words: inhibition of tumour cell growth, NCI panel, 48 h.
On to `C[C@@H]1CCC2[C@@H](C)[C@@H](OCC(CO[C@H]3OC4O[C@@]5(C)CC[C@H]6[C@H](C)CCC([C@H]3C)[C@@]46OO5)OC(=O)CCC(=O)O)OC3O[C@@]4(C)CC[C@@H]1[C@]32OO4` (stereo not given in full), for which the GI50 was 0.0111 µM and the TGI came to 0.513 µM.
Regarding `COc1cc(OC)cc(-c2cc(=O)c3c(OC)c(OC)c(OC)c(OC)c3o2)c1`, the TGI was above 100 µM.
Still for that read-out and setting: the value for `COc1cc2c(c(OC)c1OC)-c1ccc(OC)c(=O)cc1C(NC(=O)c1ccc(N=[N+]=[N-])cc1)CC2` (stereo not given) was 0.441 µM.
Regarding `O=C1OC(O)[C@@H]2[C@H]1[C@H]1CC[C@@H]2O1` (stereo not given in full), the GI50 was above 42.3 µM and the TGI was above 100 µM.
As for `COC(=O)C1=C(C)NC(C)=C(C(=O)OCCCN2CCC(c3ccccc3)(c3ccccc3)CC2)C1c1cccc([N+](=O)[O-])c1` (stereo not given), the TGI came to 75 µM.
As for `N=Nc1c(OC(=O)Nc2cccc(Cl)c2)[nH]c2ccccc12`, the TGI is 30.9 µM.
As to `Fc1cc2[nH]ncc2c2c3c(c(-c4cn[nH]c4)nc12)CCCC3`, the GI50 is 1.81 µM and the TGI was 5.53 µM.
On the same counts, the results for `C=C1C(=O)O[C@H]2[C@H]1CC/C(COC(=O)c1c[nH]c3ccccc13)=C\CC[C@@]1(C)O[C@@H]21` are 0.278 µM and 0.789 µM.
On the same counts, the results for `CCN1CCN(c2nc(C)cc(N(CCNc3ccnc4cc(Cl)ccc34)Cc3ccc4c(c3)OCO4)n2)CC1` are 2.1 µM and 4.22 µM.
Taken in the same sequence, the figures for `CCN(CC)c1ccc(-c2cc(-c3cc(OC)c(OC)c(OC)c3)nc(N3CCOCC3)c2C#N)cc1` were 0.463 µM and 6.08 µM.
Turning to `C=C(Br)C(C)(Br)CCC(Br)C(C)(C)Cl` (stereo not given), the TGI is 16.2 µM.
Turning to `O=C(CCc1nnc2sc(-c3ccc(Cl)cc3Cl)nn12)c1nc2ncccc2[nH]1`, the GI50 is 2.91 µM and the TGI was 12.8 µM.
In turn, `NS(=O)(=O)c1cc(Br)c(N=Nc2ccc(O)c3ncccc23)c(Br)c1` had a TGI of 29.4 µM.
`OCc1ccc(-c2ccc(-c3ccc(CO)s3)o2)s1` came in with a TGI of 38.2 µM.
Regarding `O=C(Nc1ccc(Cl)cc1)c1cccc(NC2=C(Cl)C(=O)N(Cc3ccccc3)C2=O)c1`, the GI50 is 4.37 µM and the TGI is 18.9 µM.
Taken in the same sequence, the figures for `Cc1cc(/C=C/c2ccc3cc(N(C)C)ccc3[n+]2C)c(C)n1-c1ccccc1` were 0.0939 µM and 0.352 µM.
With `CC[C@H](Nc1ncnc2nc[nH]c12)c1oc2ccccc2c(=O)c1-c1cccc(F)c1`, the GI50 is 11 µM and the TGI was determined as 42.5 µM.
On to `COc1cc(NCc2ccc3oc(=O)c(-c4ccccc4)nc3c2)cc(OC)c1OC`, for which the TGI is above 10 µM.

The test system of another test is UACC-62 melanoma. Put plainly: inhibition of tumour cell growth, NCI panel, 48 h.
On to `C[C@@H]1CCC2[C@@H](C)[C@@H](OCC(CO[C@H]3OC4O[C@@]5(C)CC[C@H]6[C@H](C)CCC([C@H]3C)[C@@]46OO5)OC(=O)CCC(=O)O)OC3O[C@@]4(C)CC[C@@H]1[C@]32OO4` (stereo not given in full), for which the GI50 was 0.0765 µM and the TGI came out at 21.2 µM.
In the case of `COc1cc(OC)cc(-c2cc(=O)c3c(OC)c(OC)c(OC)c(OC)c3o2)c1`, the TGI was above 100 µM.
Still for that read-out and setting: the value for `COc1cc2c(c(OC)c1OC)-c1ccc(OC)c(=O)cc1C(NC(=O)c1ccc(N=[N+]=[N-])cc1)CC2` (stereo not given) was 31.1 µM.
Take `O=C1OC(O)[C@@H]2[C@H]1[C@H]1CC[C@@H]2O1` (stereo not given in full): the GI50 was above 100 µM and the TGI was above 100 µM.
In the case of `COC(=O)C1=C(C)NC(C)=C(C(=O)OCCCN2CCC(c3ccccc3)(c3ccccc3)CC2)C1c1cccc([N+](=O)[O-])c1` (stereo not given), the TGI was determined as 3.24 µM.
On the same count and under the same terms, the figure for `N=Nc1c(OC(=O)Nc2cccc(Cl)c2)[nH]c2ccccc12` is 21.1 µM.
`Fc1cc2[nH]ncc2c2c3c(c(-c4cn[nH]c4)nc12)CCCC3`: the GI50 is 0.632 µM and the TGI came to 2.31 µM.
On the same counts, the results for `C=C1C(=O)O[C@H]2[C@H]1CC/C(COC(=O)c1c[nH]c3ccccc13)=C\CC[C@@]1(C)O[C@@H]21` are 0.185 µM and 0.388 µM.
On the same counts, the results for `CCN1CCN(c2nc(C)cc(N(CCNc3ccnc4cc(Cl)ccc34)Cc3ccc4c(c3)OCO4)n2)CC1` are 1.85 µM and 3.38 µM.
